The source made the active and inactive calls. The calls are words filed in the database; no cut-off is given here.
Legend:
[1] = biological target: Muscarinic acetylcholine receptor M3 (Homo sapiens) (UniProt P20309); conditions: Compound concentration 10.0 uM
[2] = biological target: Adrenomedullin receptor AM1; CALCRL/RAMP2 (Homo sapiens) (UniProt O60895+Q16602); experiment: Adrenomedullin AM1 Eurofins-Panlabs radioligand binding assay; format: protein-complex assay; conditions: Compound concentration 10.0 uM
[3] = biological target: Sodium-dependent dopamine transporter (Homo sapiens) (UniProt Q01959); conditions: Compound concentration 10.0 uM
[4] = biological target: Sodium-dependent noradrenaline transporter (Homo sapiens) (UniProt P23975); conditions: Compound concentration 10.0 uM
[5] = biological target: Prostaglandin G/H synthase 2 (Homo sapiens) (UniProt P35354); experiment: Inhibition of Cyclooxygenase COX-2 at compound concentration of 10.0 uM in the Eurofins-Panlabs enzyme assay (Eurofins_assay_118010); set-up: substrate with concentration 0.3 uM Arachidonic acid, incubation time 15 min, incubation temperature 37 C; conditions: Compound concentration 10.0 uM
[6] = biological target: Glutamate receptor ionotropic, kainate (Rattus norvegicus) (UniProt P22756+Q01812+P42260+P42264+Q63273); experiment: Inhibition of Glutamate, Kainate at 10 µM in the Eurofins-Panlabs radioligand binding assay (Eurofins_assay_232700); conditions: Compound concentration 10.0 uM
[7] = biological target: Retinoic acid receptor RXR-alpha (Homo sapiens) (UniProt P19793); experiment: Retinoid X Receptor RXRalpha Eurofins-Panlabs radioligand binding assay; conditions: Compound concentration 10.0 uM
[8] = biological target: 5-hydroxytryptamine receptor 5A (Homo sapiens) (UniProt P47898); conditions: Compound concentration 10.0 uM
[9] = biological target: Vasopressin V2 receptor (Homo sapiens) (UniProt P30518); experiment: Inhibition of Vasopressin V2 at 10 µM in the Eurofins-Panlabs radioligand binding assay (Eurofins_assay_287610); set-up: ligand concentration 4 nM; conditions: Compound concentration 10.0 uM
[10] = biological target: Progesterone receptor (Homo sapiens) (UniProt P06401); experiment: Inhibition of Progesterone PR-B at 10 µM in the Eurofins-Panlabs radioligand binding assay (Eurofins_assay_268020); set-up: ligand concentration 1.4 nM; conditions: Compound concentration 10.0 uM
[11] = biological target: 5-hydroxytryptamine receptor 2B (Homo sapiens) (UniProt P41595); conditions: Compound concentration 10.0 uM
[12] = biological target: Mu-type opioid receptor (Homo sapiens) (UniProt P35372); conditions: Compound concentration 10.0 uM
[13] = biological target: C-X-C chemokine receptor type 2 (Homo sapiens) (UniProt P25025); experiment: Inhibition of Chemokine CXCR2 (IL-8RB) at 10 µM in the Eurofins-Panlabs radioligand binding assay (Eurofins_assay_244500); conditions: Compound concentration 10.0 uM
Bos taurus = species: Bos taurus; experiment: Protein Serine/Threonine Kinase, PKA, Non-Selective Eurofins-Panlabs enzyme assay; format: protein-complex assay; set-up: substrate with concentration 370 µg/mL Histone Type III-S, incubation time 15 min, incubation temperature 25 °C; conditions: Compound concentration 10.0 uM
[14] = biological target: Alpha-1D adrenergic receptor (Homo sapiens) (UniProt P25100); conditions: Compound concentration 10.0 uM
[15] = biological target: D(1A) dopamine receptor (Homo sapiens) (UniProt P21728); conditions: Compound concentration 10.0 uM
[16] = biological target: Melanocyte-stimulating hormone receptor (Homo sapiens) (UniProt Q01726); experiment: Melanocortin MC1 Eurofins-Panlabs radioligand binding assay; conditions: Compound concentration 10.0 uM
[17] = biological target: cAMP and cAMP-inhibited cGMP 3',5'-cyclic phosphodiesterase 10A (Homo sapiens, UniProt Q9Y233); experiment: Cell assay
[18] = biological target: T1, Alpha-2C adrenergic receptor (Homo sapiens) (UniProt P18825); experiment: Adrenergic alpha2C Eurofins-Panlabs radioligand binding assay; set-up: ligand concentration 1 nM, non-specific ligand with concentration 10 µM WB-4101, incubation time 60 min, incubation temperature 25 °C; conditions: Compound concentration 10.0 uM
T1 sequence (whole entry): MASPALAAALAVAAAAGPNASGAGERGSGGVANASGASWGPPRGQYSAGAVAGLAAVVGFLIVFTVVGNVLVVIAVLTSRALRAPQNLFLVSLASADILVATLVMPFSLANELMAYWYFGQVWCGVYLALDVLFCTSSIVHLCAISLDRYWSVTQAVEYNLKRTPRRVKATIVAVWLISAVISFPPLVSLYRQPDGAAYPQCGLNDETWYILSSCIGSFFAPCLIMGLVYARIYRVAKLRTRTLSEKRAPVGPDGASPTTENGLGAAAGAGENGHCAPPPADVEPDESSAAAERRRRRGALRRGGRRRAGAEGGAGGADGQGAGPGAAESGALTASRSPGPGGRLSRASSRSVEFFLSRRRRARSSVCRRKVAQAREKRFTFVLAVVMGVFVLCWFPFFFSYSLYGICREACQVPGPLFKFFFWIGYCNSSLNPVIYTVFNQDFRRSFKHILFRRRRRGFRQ

[19] = biological target: T2, Alpha-1A adrenergic receptor (Homo sapiens) (UniProt P35348); conditions: Rattus norvegicus; Compound concentration 10.0 uM
T2 sequence (whole entry): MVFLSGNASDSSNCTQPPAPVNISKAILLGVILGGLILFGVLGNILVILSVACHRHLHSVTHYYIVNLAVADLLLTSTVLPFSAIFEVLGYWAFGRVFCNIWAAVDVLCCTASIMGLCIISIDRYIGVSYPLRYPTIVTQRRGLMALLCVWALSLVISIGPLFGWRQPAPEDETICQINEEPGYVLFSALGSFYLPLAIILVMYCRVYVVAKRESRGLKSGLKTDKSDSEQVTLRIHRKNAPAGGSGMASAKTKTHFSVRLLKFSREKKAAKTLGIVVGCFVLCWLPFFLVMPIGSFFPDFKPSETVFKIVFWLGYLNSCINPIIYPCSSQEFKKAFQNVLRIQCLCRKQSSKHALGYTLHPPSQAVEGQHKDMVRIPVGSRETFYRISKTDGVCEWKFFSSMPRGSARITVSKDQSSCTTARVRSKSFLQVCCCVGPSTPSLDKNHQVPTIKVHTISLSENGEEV

[20] = biological target: Melanocortin receptor 3 (Homo sapiens) (UniProt P41968); experiment: Inhibition of Melanocortin MC3 at 10 µM in the Eurofins-Panlabs radioligand binding assay (Eurofins_assay_251300); set-up: ligand concentration 0.035 nM; conditions: Compound concentration 10.0 uM
[21] = biological target: Monoamine oxidase A (MAO-A) (Homo sapiens, UniProt P21397); experiment: Inhibition of Monoamine Oxidase MAO-A at compound concentration of 10.0 uM in the Eurofins-Panlabs enzyme assay (Eurofins_assay_140010); set-up: substrate with concentration 50 uM Kynuramine, incubation time 60 min, incubation temperature 37 C; conditions: recombinant human MAO-A expressed in insect Hi5 cells, probe kynuramine, compound concentration 10 uM
Homo sapiens = species: Homo sapiens; experiment: Prostanoid, Thromboxane A2 (TP) Eurofins-Panlabs radioligand binding assay; set-up: ligand concentration 5 nM, non-specific ligand with concentration 1 µM SQ-29548, incubation time 30 min, incubation temperature 25 °C; conditions: Compound concentration 10.0 uM
[22] = Inhibition of Atrial Natriuretic Factor (ANF) at 10 µM in the Eurofins-Panlabs radioligand binding assay (Eurofins_assay_211000); conditions: Cavia porcellus; Compound concentration 10 uM; Assay protocol publication PMID: 2408776; Detection method Radioligand Binding; Incubation temperature 4 °C; Incubation time 60 min; Ligand Bmax 0.013 pM/ mg protein; Ligand Kd 0.14 nM; Ligand [125I] ANF (rat); Ligand concentration 0.016 nM; Ligand specific binding 78 %; Non-specific ligand with concentration 0.1 µM ANF (rat); Reference compound ANF (rat); Source of …
[23] = biological target: Vasopressin V1b receptor (Homo sapiens) (UniProt P47901); experiment: Inhibition of Vasopressin V1B at 10 µM in the Eurofins-Panlabs radioligand binding assay (Eurofins_assay_287560); set-up: ligand concentration 1 nM; conditions: Compound concentration 10.0 uM
[24] = biological target: Sodium-dependent dopamine transporter (Homo sapiens) (UniProt Q01959); conditions: Compound concentration 10.0 uM; remark: listed apart in the source

Sodium-dependent dopamine transporter (Homo sapiens), sequence (Q01959 whole entry): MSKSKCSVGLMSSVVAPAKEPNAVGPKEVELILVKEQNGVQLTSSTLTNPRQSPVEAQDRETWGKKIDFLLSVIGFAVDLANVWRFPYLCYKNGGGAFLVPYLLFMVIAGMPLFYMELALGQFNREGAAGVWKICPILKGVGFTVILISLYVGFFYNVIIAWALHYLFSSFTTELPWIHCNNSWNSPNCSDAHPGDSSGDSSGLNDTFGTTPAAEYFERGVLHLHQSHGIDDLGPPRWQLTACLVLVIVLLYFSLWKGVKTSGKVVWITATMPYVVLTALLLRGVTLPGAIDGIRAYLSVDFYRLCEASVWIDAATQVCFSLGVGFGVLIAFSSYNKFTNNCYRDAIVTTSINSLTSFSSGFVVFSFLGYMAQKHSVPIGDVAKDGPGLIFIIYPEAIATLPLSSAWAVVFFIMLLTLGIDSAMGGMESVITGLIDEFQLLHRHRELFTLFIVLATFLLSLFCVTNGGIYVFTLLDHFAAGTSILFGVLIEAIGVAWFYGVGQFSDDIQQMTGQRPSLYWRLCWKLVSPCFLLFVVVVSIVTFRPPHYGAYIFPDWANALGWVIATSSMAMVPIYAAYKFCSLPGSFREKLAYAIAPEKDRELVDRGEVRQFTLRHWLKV
Vasopressin V2 receptor (Homo sapiens), sequence (P30518 whole entry): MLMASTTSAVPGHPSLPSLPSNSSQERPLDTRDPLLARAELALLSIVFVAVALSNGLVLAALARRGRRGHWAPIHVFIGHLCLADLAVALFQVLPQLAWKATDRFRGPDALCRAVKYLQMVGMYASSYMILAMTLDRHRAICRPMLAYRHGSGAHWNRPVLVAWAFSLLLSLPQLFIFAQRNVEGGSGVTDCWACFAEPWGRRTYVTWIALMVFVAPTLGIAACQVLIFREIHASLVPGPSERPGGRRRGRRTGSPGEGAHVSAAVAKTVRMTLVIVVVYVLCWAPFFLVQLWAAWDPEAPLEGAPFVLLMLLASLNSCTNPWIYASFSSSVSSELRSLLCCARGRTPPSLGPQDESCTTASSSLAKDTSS
Retinoic acid receptor RXR-alpha (Homo sapiens), sequence (P19793 whole entry): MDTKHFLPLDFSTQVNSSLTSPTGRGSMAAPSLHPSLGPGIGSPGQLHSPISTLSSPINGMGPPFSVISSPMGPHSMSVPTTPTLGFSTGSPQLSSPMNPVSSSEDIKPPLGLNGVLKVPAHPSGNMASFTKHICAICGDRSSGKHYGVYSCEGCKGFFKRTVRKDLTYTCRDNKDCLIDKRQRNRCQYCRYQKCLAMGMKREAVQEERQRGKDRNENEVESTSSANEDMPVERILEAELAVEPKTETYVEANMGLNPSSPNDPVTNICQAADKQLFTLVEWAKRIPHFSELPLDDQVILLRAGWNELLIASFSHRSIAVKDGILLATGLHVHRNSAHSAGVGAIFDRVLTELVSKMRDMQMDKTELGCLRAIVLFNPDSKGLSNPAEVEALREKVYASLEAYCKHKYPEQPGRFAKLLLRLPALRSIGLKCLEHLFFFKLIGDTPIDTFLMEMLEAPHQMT
Muscarinic acetylcholine receptor M3 (Homo sapiens), sequence (P20309 whole entry, looked up): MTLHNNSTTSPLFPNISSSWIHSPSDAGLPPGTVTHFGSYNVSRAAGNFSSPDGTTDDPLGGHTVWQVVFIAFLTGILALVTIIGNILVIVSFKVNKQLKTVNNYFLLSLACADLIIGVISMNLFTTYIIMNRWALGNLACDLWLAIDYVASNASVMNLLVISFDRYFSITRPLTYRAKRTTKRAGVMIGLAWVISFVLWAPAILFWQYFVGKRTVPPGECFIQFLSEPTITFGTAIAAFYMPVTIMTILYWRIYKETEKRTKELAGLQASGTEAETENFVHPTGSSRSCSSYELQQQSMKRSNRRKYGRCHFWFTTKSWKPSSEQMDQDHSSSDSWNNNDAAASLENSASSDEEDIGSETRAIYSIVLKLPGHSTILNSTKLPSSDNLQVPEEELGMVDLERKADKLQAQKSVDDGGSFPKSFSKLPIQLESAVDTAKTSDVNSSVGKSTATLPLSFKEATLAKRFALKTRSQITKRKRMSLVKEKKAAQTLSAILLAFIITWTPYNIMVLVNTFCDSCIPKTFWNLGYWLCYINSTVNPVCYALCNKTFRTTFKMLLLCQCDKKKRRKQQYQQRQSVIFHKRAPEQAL
Progesterone receptor (Homo sapiens), sequence (P06401 whole entry): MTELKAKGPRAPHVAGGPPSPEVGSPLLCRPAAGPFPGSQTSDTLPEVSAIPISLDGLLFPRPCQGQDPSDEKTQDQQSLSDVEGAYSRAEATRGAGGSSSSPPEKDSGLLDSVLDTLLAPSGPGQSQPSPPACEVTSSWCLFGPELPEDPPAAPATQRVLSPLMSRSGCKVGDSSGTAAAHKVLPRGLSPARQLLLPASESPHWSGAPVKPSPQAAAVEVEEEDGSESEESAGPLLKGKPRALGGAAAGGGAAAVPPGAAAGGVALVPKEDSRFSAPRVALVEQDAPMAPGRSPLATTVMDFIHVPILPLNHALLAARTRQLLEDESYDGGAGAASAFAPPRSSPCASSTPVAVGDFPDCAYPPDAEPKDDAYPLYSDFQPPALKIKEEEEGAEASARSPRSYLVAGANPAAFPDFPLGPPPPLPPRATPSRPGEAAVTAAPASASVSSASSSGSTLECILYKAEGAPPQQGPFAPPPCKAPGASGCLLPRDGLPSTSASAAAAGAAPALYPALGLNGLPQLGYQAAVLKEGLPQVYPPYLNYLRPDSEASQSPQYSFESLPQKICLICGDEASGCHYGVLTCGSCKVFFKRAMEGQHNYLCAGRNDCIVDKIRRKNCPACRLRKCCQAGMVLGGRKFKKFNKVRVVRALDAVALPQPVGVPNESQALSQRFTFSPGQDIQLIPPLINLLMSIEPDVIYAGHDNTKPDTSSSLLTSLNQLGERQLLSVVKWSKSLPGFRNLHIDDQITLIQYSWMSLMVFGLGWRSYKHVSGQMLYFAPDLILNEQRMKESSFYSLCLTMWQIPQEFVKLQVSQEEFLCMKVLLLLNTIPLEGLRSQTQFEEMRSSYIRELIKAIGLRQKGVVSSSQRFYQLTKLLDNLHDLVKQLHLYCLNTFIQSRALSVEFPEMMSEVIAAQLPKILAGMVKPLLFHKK
5-hydroxytryptamine receptor 2B (Homo sapiens), sequence (P41595 whole entry): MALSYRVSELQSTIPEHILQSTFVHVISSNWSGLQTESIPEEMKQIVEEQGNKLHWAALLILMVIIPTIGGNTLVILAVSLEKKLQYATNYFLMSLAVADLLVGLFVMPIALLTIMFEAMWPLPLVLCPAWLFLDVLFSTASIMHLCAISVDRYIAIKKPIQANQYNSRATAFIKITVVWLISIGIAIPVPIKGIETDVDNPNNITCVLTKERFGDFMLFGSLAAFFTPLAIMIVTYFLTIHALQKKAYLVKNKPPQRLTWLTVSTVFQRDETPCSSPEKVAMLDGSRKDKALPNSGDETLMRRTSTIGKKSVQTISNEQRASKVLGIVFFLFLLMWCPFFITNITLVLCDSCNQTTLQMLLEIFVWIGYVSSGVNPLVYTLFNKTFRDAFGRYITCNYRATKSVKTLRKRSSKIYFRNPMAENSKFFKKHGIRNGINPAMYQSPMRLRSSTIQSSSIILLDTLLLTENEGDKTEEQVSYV
D(1A) dopamine receptor (Homo sapiens), sequence (P21728 whole entry): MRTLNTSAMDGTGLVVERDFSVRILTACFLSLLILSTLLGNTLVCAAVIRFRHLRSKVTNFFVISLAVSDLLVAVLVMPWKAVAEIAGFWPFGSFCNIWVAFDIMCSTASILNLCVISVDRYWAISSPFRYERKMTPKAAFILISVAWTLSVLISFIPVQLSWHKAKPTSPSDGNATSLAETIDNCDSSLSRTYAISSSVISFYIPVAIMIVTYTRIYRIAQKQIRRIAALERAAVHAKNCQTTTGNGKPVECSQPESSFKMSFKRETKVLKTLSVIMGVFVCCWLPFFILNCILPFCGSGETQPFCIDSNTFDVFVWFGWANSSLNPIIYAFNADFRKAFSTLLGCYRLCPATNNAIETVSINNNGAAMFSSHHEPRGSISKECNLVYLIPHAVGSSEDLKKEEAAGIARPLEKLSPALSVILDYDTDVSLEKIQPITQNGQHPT
5-hydroxytryptamine receptor 5A (Homo sapiens), sequence (P47898 whole entry): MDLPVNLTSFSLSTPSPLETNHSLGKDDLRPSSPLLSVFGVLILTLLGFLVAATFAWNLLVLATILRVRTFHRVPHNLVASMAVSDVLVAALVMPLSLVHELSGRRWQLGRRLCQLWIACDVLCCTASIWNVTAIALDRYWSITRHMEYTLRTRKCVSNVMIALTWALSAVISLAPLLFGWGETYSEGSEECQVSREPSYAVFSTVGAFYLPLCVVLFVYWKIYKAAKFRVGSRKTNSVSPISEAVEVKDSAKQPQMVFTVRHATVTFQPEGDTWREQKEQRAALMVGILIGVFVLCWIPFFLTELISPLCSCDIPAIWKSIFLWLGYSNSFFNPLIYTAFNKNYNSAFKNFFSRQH
Alpha-1D adrenergic receptor (Homo sapiens), sequence (P25100 whole entry): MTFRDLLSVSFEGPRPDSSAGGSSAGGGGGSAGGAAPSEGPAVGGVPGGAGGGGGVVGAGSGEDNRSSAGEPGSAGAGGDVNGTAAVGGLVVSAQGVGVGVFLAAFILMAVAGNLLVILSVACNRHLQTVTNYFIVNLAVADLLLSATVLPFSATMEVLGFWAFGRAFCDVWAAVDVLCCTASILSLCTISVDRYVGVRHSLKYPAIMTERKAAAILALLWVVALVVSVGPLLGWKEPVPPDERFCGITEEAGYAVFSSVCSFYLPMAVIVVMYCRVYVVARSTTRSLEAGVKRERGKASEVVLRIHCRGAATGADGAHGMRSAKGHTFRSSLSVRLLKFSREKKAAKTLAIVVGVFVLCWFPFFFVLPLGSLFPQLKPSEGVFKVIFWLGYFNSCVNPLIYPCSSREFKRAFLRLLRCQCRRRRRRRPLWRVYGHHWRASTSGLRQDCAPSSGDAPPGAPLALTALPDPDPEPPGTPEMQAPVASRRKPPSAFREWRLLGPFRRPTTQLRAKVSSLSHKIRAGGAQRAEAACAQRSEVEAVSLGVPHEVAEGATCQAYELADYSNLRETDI

In the case of `COCCOc1nc(-c2ccc(Cl)nc2)nc2c1CN(C(=O)c1ncn3ccccc13)CC2` [THPP-1], the inhibition [1] is reported as -6%, the inhibition [2] is reported as -6% and the inhibition [3] is reported as -3%. It also gave an inhibition [4] of 3%, an inhibition [5] of -10% and an inhibition [6] of 9%. It also gave an inhibition [7] of -4%, an inhibition [8] of -7.27% and an inhibition [9] of -2%. The inhibition [10] was 12%, the inhibition [11] was -1% and the inhibition [12] was 2%. For the same molecule, the inhibition [13] was -4%, the inhibition (Bos taurus) was -7% and the inhibition [14] was -4.48%. For the same molecule, the inhibition [15] was 6%, the inhibition [16] was 23% and the IC50 [17] was 49 nM (active). For the same molecule, the inhibition [18] was 3%, the inhibition [19] was 9% and the inhibition [20] was 0%. For the same molecule, the inhibition at 60 min, 10 µM [21] was 42% (not active), the inhibition (Homo sapiens) was 8% and the inhibition at 10 µM [22] was 0% (not active). For the same molecule, the inhibition [23] was 5%.
`CC(C)CC(=O)N1CCc2nc(-c3ccc(Br)cc3)nc(N(C)Cc3ccccc3)c2C1` [THPP-1-NC] gave an inhibition [24] of 15.3%.
